Data from patent US20170190671A1, “BIS(ARYL)CATECHOL DERIVATIVES AS HERBICIDES” (E I DU PONT DE NEMOURS AND COMPANY, priority 2014, published 2017).

Tests used:
Assay in all cases: Test E preemergence
Type in all cases: in vivo
Conditions in all cases: scale 0 to 100
[1] = test system: Brazilian crabgrass (Digitaria horizontalis)
Outline: (§1)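 Visual ratings from 0 = no effect to 100 = complete control, scored against untreated controls after 14 to 21 days in the greenhouse. Compounds, in a non-phytotoxic solvent mix with surfactant, went onto silt loam soil right after sowing (preemergence) or onto 2–18 cm plants at the 1- to 4-leaf stage (postemergence).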

[2] = test system: Italian ryegrass (Lolium multiflorum)
Outline: as §1

[3] = test system: Surinam grass (Brachiaria decumbens)
Outline: as §1

[4] = test system: barnyardgrass (Echinochloa crus-galli)
Outline: as §1

[5] = test system: dayflower (Virginia (VA) dayflower, Commelina virginica)
Outline: as §1

[6] = test system: fall panicum (Panicum dichotomiflorum)
Outline: as §1

[7] = test system: field bindweed (Convolvulus arvensis)
Outline: as §1

[8] = test system: giant foxtail (Setaria faberii)
Outline: as §1

[9] = test system: goosegrass (Eleusine indica)
Outline: as §1

[10] = test system: green foxtail (Setaria viridis)
Outline: as §1

[11] = test system: hairy beggarticks (Bidens pilosa)
Outline: as §1

[12] = test system: kochia (Kochia scoparia)
Outline: as §1

[13] = test system: lambsquarters (Chenopodium album)
Outline: as §1

[14] = test system: large (Lg) crabgrass (Digitaria sanguinalis)
Outline: as §1

[15] = test system: morningglory (Ipomoea coccinea)
Outline: as §1

[16] = test system: nightshade (eastern black nightshade, Solanum ptycanthum)
Outline: as §1

[17] = test system: palmer pigweed (Amaranthus palmeri)
Outline: as §1

[18] = test system: ragweed (common ragweed, Ambrosia elatior)
Outline: as §1

[19] = test system: velvetleaf (Abutilon theophrasti)
Outline: as §1

[20] = test system: waterhemp (common waterhemp, Amaranthus rudis)
Outline: as §1

[21] = test system: yellow nutsedge (Cyperus esculentus)
Outline: as §1

Q: Which results are given for `Fc1cccc(Oc2ncc(C(F)(F)F)cn2)c1Oc1ncc(Cl)cn1` [Compound 42, 5-chloro-2-[2-fluoro-6-[[5-(trifluoromethyl)-2-pyrimidinyl]oxy]phenoxy]pyrimidine]?
A: Plant response rating, Crabgrass, Brazil ([1]; 16 g ai/ha): 35; Plant response rating, Crabgrass, Brazil ([1]; 31 g ai/ha): 95; Plant response rating, Crabgrass, Brazil ([1]; 62 g ai/ha): 100; Plant response rating, Crabgrass, Brazil ([1]; 125 g ai/ha): 100; Plant response rating, Ryegrass, Italian ([2]; 16 g ai/ha): 20; Plant response rating, Ryegrass, Italian ([2]; 31 g ai/ha): 40; Plant response rating, Ryegrass, Italian ([2]; 62 g ai/ha): 80; Plant response rating, Ryegrass, Italian ([2]; 125 g ai/ha): 98; Plant response rating, Surinam Grass ([3]; 16 g ai/ha): 0; Plant response rating, Surinam Grass ([3]; 31 g ai/ha): 0; Plant response rating, Surinam Grass ([3]; 62 g ai/ha): 40; Plant response rating, Surinam Grass ([3]; 125 g ai/ha): 85; Plant response rating, Barnyardgrass ([4]; 16 g ai/ha): 5; Plant response rating, Barnyardgrass ([4]; 31 g ai/ha): 50; Plant response rating, Barnyardgrass ([4]; 62 g ai/ha): 70; Plant response rating, Barnyardgrass ([4]; 125 g ai/ha): 100; Plant response rating, Dayflower, VA ([5]; 16 g ai/ha): 0; Plant response rating, Dayflower, VA ([5]; 31 g ai/ha): 20; Plant response rating, Dayflower, VA ([5]; 62 g ai/ha): 90; Plant response rating, Dayflower, VA ([5]; 125 g ai/ha): 95; Plant response rating, Panicum, Fall ([6]; 16 g ai/ha): 0; Plant response rating, Panicum, Fall ([6]; 31 g ai/ha): 98; Plant response rating, Panicum, Fall ([6]; 62 g ai/ha): 100; Plant response rating, Panicum, Fall ([6]; 125 g ai/ha): 100; Plant response rating, Field Bindweed ([7]; 16 g ai/ha): 25; Plant response rating, Field Bindweed ([7]; 31 g ai/ha): 20; Plant response rating, Field Bindweed ([7]; 62 g ai/ha): 40; Plant response rating, Field Bindweed ([7]; 125 g ai/ha): 85; Plant response rating, Foxtail, Giant ([8]; 16 g ai/ha): 50; Plant response rating, Foxtail, Giant ([8]; 31 g ai/ha): 80; Plant response rating, Foxtail, Giant ([8]; 62 g ai/ha): 100; Plant response rating, Foxtail, Giant ([8]; 125 g ai/ha): 100; Plant response rating, Goosegrass ([9]; 16 g ai/ha): 0; Plant response rating, Goosegrass ([9]; 31 g ai/ha): 50; Plant response rating, Goosegrass ([9]; 62 g ai/ha): 90; Plant response rating, Goosegrass ([9]; 125 g ai/ha): 98; Plant response rating, Foxtail, Green ([10]; 16 g ai/ha): 35; Plant response rating, Foxtail, Green ([10]; 31 g ai/ha): 80; Plant response rating, Foxtail, Green ([10]; 62 g ai/ha): 95; Plant response rating, Foxtail, Green ([10]; 125 g ai/ha): 100; Plant response rating, Beggarticks ([11]; 16 g ai/ha): 0; Plant response rating, Beggarticks ([11]; 31 g ai/ha): 0; Plant response rating, Beggarticks ([11]; 62 g ai/ha): 0; Plant response rating, Beggarticks ([11]; 125 g ai/ha): 0; Plant response rating, Kochia ([12]; 16 g ai/ha): 80; Plant response rating, Kochia ([12]; 31 g ai/ha): 90; Plant response rating, Kochia ([12]; 62 g ai/ha): 100; Plant response rating, Kochia ([12]; 125 g ai/ha): 100; Plant response rating, Lambsquarters ([13]; 16 g ai/ha): 100; Plant response rating, Lambsquarters ([13]; 31 g ai/ha): 100; Plant response rating, Lambsquarters ([13]; 62 g ai/ha): 100; Plant response rating, Lambsquarters ([13]; 125 g ai/ha): 100; Plant response rating, Crabgrass, Large ([14]; 16 g ai/ha): 80; Plant response rating, Crabgrass, Large ([14]; 31 g ai/ha): 98; Plant response rating, Crabgrass, Large ([14]; 62 g ai/ha): 100; Plant response rating, Crabgrass, Large ([14]; 125 g ai/ha): 100; Plant response rating, Morningglory ([15]; 16 g ai/ha): 0; Plant response rating, Morningglory ([15]; 31 g ai/ha): 35; Plant response rating, Morningglory ([15]; 62 g ai/ha): 70; Plant response rating, Morningglory ([15]; 125 g ai/ha): 95; Plant response rating, Nightshade ([16]; 16 g ai/ha): 80; Plant response rating, Nightshade ([16]; 31 g ai/ha): 70; Plant response rating, Nightshade ([16]; 62 g ai/ha): 98; Plant response rating, Nightshade ([16]; 125 g ai/ha): 98; Plant response rating, Pigweed, Palmer ([17]; 16 g ai/ha): 60; Plant response rating, Pigweed, Palmer ([17]; 31 g ai/ha): 70; Plant response rating, Pigweed, Palmer ([17]; 62 g ai/ha): 80; Plant response rating, Pigweed, Palmer ([17]; 125 g ai/ha): 100; Plant response rating, Ragweed ([18]; 16 g ai/ha): 0; Plant response rating, Ragweed ([18]; 31 g ai/ha): 20; Plant response rating, Ragweed ([18]; 62 g ai/ha): 65; Plant response rating, Ragweed ([18]; 125 g ai/ha): 100; Plant response rating, Velvetleaf ([19]; 16 g ai/ha): 75; Plant response rating, Velvetleaf ([19]; 31 g ai/ha): 80; Plant response rating, Velvetleaf ([19]; 62 g ai/ha): 100; Plant response rating, Velvetleaf ([19]; 125 g ai/ha): 100; Plant response rating, Waterhemp ([20]; 16 g ai/ha): 98; Plant response rating, Waterhemp ([20]; 31 g ai/ha): 100; Plant response rating, Waterhemp ([20]; 62 g ai/ha): 100; Plant response rating, Waterhemp ([20]; 125 g ai/ha): 100; Plant response rating, Nutsedge, Yellow ([21]; 16 g ai/ha): 0; Plant response rating, Nutsedge, Yellow ([21]; 31 g ai/ha): 0; Plant response rating, Nutsedge, Yellow ([21]; 62 g ai/ha): 35; Plant response rating, Nutsedge, Yellow ([21]; 125 g ai/ha): 40

Q: Which “Plant response rating, Crabgrass, Brazil” value ([1]; 31 g ai/ha) does the source give for `Fc1cccc(Oc2ncc(Cl)cn2)c1Oc1ncc(C(F)(F)F)cn1` [Compound 43, 5-chloro-2-[5-fluoro-6-[[5-(trifluoromethyl)-2-pyrimidinyl]oxy]phenoxy]pyrimidine] here?
A: Its value is 95.

Q: And the “Plant response rating, Crabgrass, Brazil” value ([1]; 125 g ai/ha)?
A: The value was 100.

Q: What about the “Plant response rating, Ryegrass, Italian” value ([2]; 31 g ai/ha) of the same molecule?
A: The value was 40.

Q: And the “Plant response rating, Ryegrass, Italian” value ([2]; 125 g ai/ha)?
A: The value was 98.

Q: What about the “Plant response rating, Surinam Grass” value ([3]; 31 g ai/ha) of the same molecule?
A: The value was 25.

Q: And the “Plant response rating, Surinam Grass” value ([3]; 125 g ai/ha)?
A: Its value is 80.

Q: What about the “Plant response rating, Barnyardgrass” value ([4]; 31 g ai/ha) of the same molecule?
A: Its value is 20.

Q: And the “Plant response rating, Barnyardgrass” value ([4]; 125 g ai/ha)?
A: The value was 100.

Q: What about the “Plant response rating, Dayflower, VA” value ([5]; 31 g ai/ha) of the same molecule?
A: Its value is 25.

Q: What about the “Plant response rating, Dayflower, VA” value ([5]; 125 g ai/ha) of the same molecule?
A: Its value is 95.

Q: And the “Plant response rating, Panicum, Fall” value ([6]; 31 g ai/ha)?
A: The value was 95.

Q: What about the “Plant response rating, Panicum, Fall” value ([6]; 125 g ai/ha) of the same molecule?
A: Its value is 100.

Q: What about the “Plant response rating, Field Bindweed” value ([7]; 31 g ai/ha) of the same molecule?
A: The value was 20.

Q: And the “Plant response rating, Field Bindweed” value ([7]; 125 g ai/ha)?
A: The value was 50.

Q: What about the “Plant response rating, Foxtail, Giant” value ([8]; 31 g ai/ha) of the same molecule?
A: Its value is 85.

Q: And the “Plant response rating, Foxtail, Giant” value ([8]; 125 g ai/ha)?
A: The value was 100.

Q: What about the “Plant response rating, Goosegrass” value ([9]; 31 g ai/ha) of the same molecule?
A: Its value is 50.

Q: What about the “Plant response rating, Goosegrass” value ([9]; 125 g ai/ha) of the same molecule?
A: The value was 100.

Q: What about the “Plant response rating, Foxtail, Green” value ([10]; 31 g ai/ha) of the same molecule?
A: Its value is 70.

Q: What about the “Plant response rating, Foxtail, Green” value ([10]; 125 g ai/ha) of the same molecule?
A: Its value is 100.

Q: What about the “Plant response rating, Beggarticks” value ([11]; 31 g ai/ha) of the same molecule?
A: Its value is 0.

Q: And the “Plant response rating, Beggarticks” value ([11]; 125 g ai/ha)?
A: Its value is 0.

Q: And the “Plant response rating, Kochia” value ([12]; 31 g ai/ha)?
A: Its value is 98.

Q: And the “Plant response rating, Kochia” value ([12]; 125 g ai/ha)?
A: Its value is 100.

Q: And the “Plant response rating, Lambsquarters” value ([13]; 31 g ai/ha)?
A: Its value is 95.

Q: What about the “Plant response rating, Lambsquarters” value ([13]; 125 g ai/ha) of the same molecule?
A: The value was 100.

Q: What about the “Plant response rating, Crabgrass, Large” value ([14]; 31 g ai/ha) of the same molecule?
A: The value was 98.

Q: And the “Plant response rating, Crabgrass, Large” value ([14]; 125 g ai/ha)?
A: Its value is 100.

Q: What about the “Plant response rating, Morningglory” value ([15]; 31 g ai/ha) of the same molecule?
A: The value was 5.

Q: And the “Plant response rating, Morningglory” value ([15]; 125 g ai/ha)?
A: The value was 95.

Q: What about the “Plant response rating, Nightshade” value ([16]; 31 g ai/ha) of the same molecule?
A: The value was 98.

Q: What about the “Plant response rating, Nightshade” value ([16]; 125 g ai/ha) of the same molecule?
A: The value was 100.

Q: What about the “Plant response rating, Pigweed, Palmer” value ([17]; 31 g ai/ha) of the same molecule?
A: Its value is 75.

Q: And the “Plant response rating, Pigweed, Palmer” value ([17]; 125 g ai/ha)?
A: The value was 90.

Q: What about the “Plant response rating, Ragweed” value ([18]; 31 g ai/ha) of the same molecule?
A: Its value is 60.

Q: And the “Plant response rating, Ragweed” value ([18]; 125 g ai/ha)?
A: Its value is 85.

Q: And the “Plant response rating, Velvetleaf” value ([19]; 31 g ai/ha)?
A: The value was 70.

Q: And the “Plant response rating, Velvetleaf” value ([19]; 125 g ai/ha)?
A: The value was 100.

Q: And the “Plant response rating, Waterhemp” value ([20]; 31 g ai/ha)?
A: Its value is 90.

Q: And the “Plant response rating, Waterhemp” value ([20]; 125 g ai/ha)?
A: Its value is 100.

Q: What about the “Plant response rating, Nutsedge, Yellow” value ([21]; 31 g ai/ha) of the same molecule?
A: Its value is 0.

Q: And the “Plant response rating, Nutsedge, Yellow” value ([21]; 125 g ai/ha)?
A: Its value is 25.
